Columns and labels:
MMP-1 = molecular target: T1, MMP-1 (Homo sapiens, UniProt P03956); test: MMP-1 inhibition (thiopeptide or fluorescent peptide substrate); assay type: biochemical; conditions: read-out: MMP-1 % Inhib
T1 sequence (P03956 100-469): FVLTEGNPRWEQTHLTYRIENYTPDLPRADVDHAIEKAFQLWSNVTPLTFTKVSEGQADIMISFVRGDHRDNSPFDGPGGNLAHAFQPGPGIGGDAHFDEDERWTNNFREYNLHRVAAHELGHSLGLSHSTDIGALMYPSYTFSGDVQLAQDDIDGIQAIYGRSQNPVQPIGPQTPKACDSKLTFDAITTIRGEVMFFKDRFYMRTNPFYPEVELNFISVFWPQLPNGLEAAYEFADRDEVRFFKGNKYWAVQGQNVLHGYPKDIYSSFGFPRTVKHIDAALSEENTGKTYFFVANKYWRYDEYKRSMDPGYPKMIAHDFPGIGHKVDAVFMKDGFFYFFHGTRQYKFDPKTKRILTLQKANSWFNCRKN
Experimental: (§1) Test Procedures for Measuring MMP-1 and MMP-13 Inhibition
(§2) These standard pharmacological test procedures are based on the cleavage of a thiopeptide substrates such as Ac-Pro-Leu-Gly(2-mercapto-4-methyl-pentanoyl)-Leu-Gly-OEt by the matrix metalloproteinases MMP-1 or MMP-13 (collagenases) which results in the release of a substrate product that reacts colorimetrically with DTNB (5,5′-dithiobis(2-nitro-benzoic acid)). The enzyme activity is measured by the rate of the color increase. The thiopeptide substrate is made up fresh as a 20 mM stock in 100% DMSO and the DTNB is dissolved in 100% DMSO as a 100 mM stock and stored in the dark at room temperature. Both the substrate and DTNB are diluted together to 1 mM with substrate buffer (50 mM HEPES pH 7.5, 5 mM CaCl2) before use. The stock of enzyme is diluted with buffer (50 mM HEPES, pH 7.5, 5 mM CaCl2, 0.02% Brij) to the desired final concentration. The buffer, enzyme, vehicle or inhibitor, and DTNB/substrate are added in this order to a 96 well plate (total reaction volume of 200 μl) and the increase in color is monitored spectrophotometrically for 5 minutes at 405 nm on a plate reader and the increase in color over time is plotted as a linear line.
(§3) Alternatively, a fluorescent peptide substrate is used. In this test procedure, the peptide substrate contains a fluorescent group and a quenching group. Upon cleavage of the substrate by an MMP, the fluorescence that is generated is quantitated on the fluorescence plate reader. The assay is run in HCBC assay buffer (50 mM HEPES, pH 7.0, 5 mM Ca^+2, 0.02% Brij, 0.5% Cysteine), with human recombinant MMP-1 or MMP-13. The substrate is dissolved in methanol and stored frozen in 1 mM aliquots. For the assay, substrate and enzymes are diluted in HCBC buffer to the desired concentrations. Compounds are added to the 96 well plate containing enzyme and the reaction is started by the addition of substrate. The reaction is read (excitation 340 nm, emission 444 nm) for 10 min. and the increase in fluorescence over time is plotted as a linear line.
(§4) For either the thiopeptide or fluorescent peptide test procedures, the slope of the line is calculated and represents the reaction rate. The linearity of the reaction rate is confirmed (r^2>0.85). The mean (x±sem) of the control rate is calculated and compared for statistical significance (p<0.05) with drug-treated rates using Dunnett's multiple comparison test. Dose-response relationships can be generated using multiple doses of drug and IC50 values with 95% Cl are estimated using linear regression.

MMP-13 = MMP-13 (Homo sapiens, UniProt P45452); test: MMP-13 inhibition (thiopeptide or fluorescent peptide substrate); assay type: biochemical; conditions: read-out: MMP-13 % Inhib
Experimental: as §1, §2, §3, §4

[1] = molecular target: TNF-α converting enzyme (TACE) (Homo sapiens, UniProt P78536); test: TACE inhibition (fluorescent peptidyl substrate); assay type: biochemical
Chain of TNF-α converting enzyme (TACE) (P78536 215-824, species assumed): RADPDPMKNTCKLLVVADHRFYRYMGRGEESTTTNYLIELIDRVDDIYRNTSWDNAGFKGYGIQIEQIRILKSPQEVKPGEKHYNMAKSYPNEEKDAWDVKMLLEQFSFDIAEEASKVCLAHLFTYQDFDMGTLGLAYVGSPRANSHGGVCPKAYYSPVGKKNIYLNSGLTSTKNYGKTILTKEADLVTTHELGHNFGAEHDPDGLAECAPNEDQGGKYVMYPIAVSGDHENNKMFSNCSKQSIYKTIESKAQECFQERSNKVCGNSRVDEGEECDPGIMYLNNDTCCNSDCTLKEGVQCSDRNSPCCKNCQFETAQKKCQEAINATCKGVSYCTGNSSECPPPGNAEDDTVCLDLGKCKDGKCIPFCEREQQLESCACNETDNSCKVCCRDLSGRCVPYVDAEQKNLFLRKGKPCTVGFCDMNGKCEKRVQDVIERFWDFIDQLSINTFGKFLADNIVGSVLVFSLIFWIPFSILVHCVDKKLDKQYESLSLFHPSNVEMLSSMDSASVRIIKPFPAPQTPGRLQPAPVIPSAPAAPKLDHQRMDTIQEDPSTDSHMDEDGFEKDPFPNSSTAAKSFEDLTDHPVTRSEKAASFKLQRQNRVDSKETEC
Experimental: Test Procedure for Measuring TACE Inhibition
Using 96-well black microtiter plates, each well receives a solution composed of 10 μL TACE (final concentration 1 μg/mL), 70 μL Tris buffer, pH 7.4 containing 10% glycerol (final concentration 10 mM), and 10 μL of test compound solution in DMSO (final concentration 1 μM, DMSO concentration <1%) and incubated for 10 minutes at room temperature. The reaction is initiated by addition of a fluorescent peptidyl substrate (final concentration 100 μM) to each well and then shaking on a shaker for 5 sec.
The reaction is read (excitation 340 nm, emission 420 nm) for 10 min. and the increase in fluorescence over time is plotted as a linear line. The slope of the line is calculated and represents the reaction rate.
as §4, with “The” for “For either the thiopeptide or fluorescent peptide test procedures, the slope of the line is calculated and represents the reaction rate. The”, “generate” for “generated”

THP-1 cells = test: THP-1 soluble protein assay (LPS-stimulated THP-1 cells, ELISA); assay type: cell-based; conditions: Homo sapiens
Text: Human Monocytic THP-1 Cell Differentiation Assay for Soluble Proteins (THP-1 Soluble Protein Assay)
Mitogenic stimulation of THP-1 cells cause differentiation into macrophage like cells with concomitant secretion of tumor necrosis factor (TNF-a) and TNF receptor (TNF-R p75/80 and TNF-R p55/60) and Interleukin-8 (IL-8), among other proteins. In addition, non-stimulated THP-1 cells shed both the p75/80 and the p55/60 receptors over time. The release of membrane bound TNF-α and possibly TNF-R p75/80 and TNF-R p55/60, but not IL-8, is mediated by an enzyme called TNF-a converting enzyme or TACE.
THP-1 cells (from ATCC) are a human monocytic cell line which are obtained from the peripheral blood of a person with acute monocytic leukemia. They can be grown in culture and differentiated into macrophage like cells by stimulation with mitogens.
For the assay, THP-1 cells are seeded from an ATCC stock which is previously grown and frozen back at 5×10^6/ml/vial. One vial is seeded into a T25-flask with 16 mls of RPMI-1640 with glutamax (Gibco) media containing 10% fetal bovine serum, 100 units/ml penicillin, 100 μg/ml streptomycin, and 5×10^−5 M 2-mercapto-ethanol (THP-1 media). Each vial of cells are cultured for about two weeks prior to being used for an assay and then are used for only 4 to 6 weeks to screen compounds. Cells are subcultured on Mondays and Thursdays to a concentration of 1×10^5/ml.
To perform an assay, the THP-1 cells are co-incubated in a 24 well plate with […] of a 24 mg/ml stock of Lipopolysacharide (LPS) (Calbiochem Lot# B13189) at 37° C. in 5% CO2 at a concentration of 1.091×10^6 cells/ml (1.1 ml/well) for a total of 24 hours. At the same time, […] of drug, vehicle or THP-1 media is plated in appropriate wells to give a final volume of 1.2 ml/well. Standard and test compounds are dissolved in DMSO at a concentration of 36 mM and diluted from here to the appropriate concentrations in THP-1 media and added to the wells at the beginning of the incubation period to give final concentrations of […], 300 nM, and 100 nM. Cell exposure to DMSO is limited to 0.1% final concentration. Positive control wells are included in the experiment which had mitogen added but no drug. Vehicle control wells are included as well, which are identical to the positive control wells, except that DMSO is added to give a final concentration of 0.083%. Negative control wells are included in the experiment which had vehicle but no mitogen or drug added to the cells. Compounds can be evaluated for their effect on basal (non-stimulated) shedding of the receptors by replacing the LPS with […] of THP-1 media. Plates are placed into an incubator set at 5% CO2 and at 37° C. […]
In addition, at the 24 hours timepoint, and the cells for each treatment group are collected by resuspension in 500 μl/well of THP-1 media and transferred into a FACS tube. […] The samples are run on a Becton Dickinson FaxCaliber FLOW cytometry machine and the amount of dye taken up by each cell is measured in the high red wavelength (FL3). […] The percent of live cells is calculated by the number of cells not stained with PI, divided by the total number of cells in the sample. The viability values calculated for the drug treated groups are compared to the viability value calculated for the vehicle treated mitogen stimulated group (“vehicle positive control”) to determine the “percent change from control”. […]

Compound | inhibition at 10 µM (MMP-1) [%] | inhibition at 10 µM (MMP-13) [%] | IC50 [1] [nM] | inhibition at 1 µM (THP-1 cells) [%]
CC#CCOc1ccc(S(=O)(=O)Oc2c(C)cccc2C(=O)NO)cc1 [Example 1, 2-[(Hydroxyamino)carbonyl]-6-methylphenyl 4-(2-butynyloxy)benzenesulfonate] | 11 | 38 | 19 | 11
CC#CCOc1ccc(S(=O)(=O)Oc2c(OC)cccc2C(=O)NO)cc1 [Example 2, 2-[(Hydroxyamino)carbonyl]-6-methoxyphenyl 4-(2-butynyloxy)benzenesulfonate] | 7 | 56 | 13 | 1
CC#CCOc1ccc(S(=O)(=O)Oc2ccc(C)cc2C(=O)NO)cc1 [Example 3, 2-[(Hydroxyamino)carbonyl]-4-methylphenyl 4-(2-butynyloxy)benzenesulfonate] | 11 | 27 | 31 | 0
CC#CCOc1ccc(S(=O)(=O)Oc2c(C(=O)NO)cc(C(C)C)cc2C(C)C)cc1 [Example 4, 2-[(Hydroxyamino)carbonyl]-4,6-diisopropylphenyl 4-(2-butynyloxy)benzenesulfonate] | 3 | 45 | 361 | 6
CC#CCOc1ccc(S(=O)(=O)Oc2cc3ccccc3cc2C(=O)NO)cc1 [Example 5, 3-[(Hydroxyamino)carbonyl]-2-naphthyl 4-(2-butynyloxy)benzenesulfonate] | 16 | 64 | 67 | 0

— patent US7485667B2, “Acetylenic aryl sulfonate hydroxamic acid tace and matrix metalloproteinase inhibitors” (Wyeth Holdings Corporation, priority 2002, dated 2009)
